Assay results reported in ChEMBL document CHEMBL1201862, “PubChem BioAssay data set” (2004).
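The compound was tested at five concentrations on cells cultured in 96-well plates, with a 48-hour exposure period. GI50 marks 50% less growth.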 Calls of active or inactive are those of the source. Cut-off read from the data, not from the text of the source: active = GI50 up to about 1.1 µM and inactive = higher.

Key:
Assay in all cases: DTP human tumour cell line panel, 48 h
[1] = test system: A498
[2] = test system: BT-549
[3] = test system: CAKI-1
[4] = test system: CCRF-CEM
[5] = test system: COLO 205
[6] = test system: DU-145
[7] = test system: HCC 2998
[8] = test system: HCT-116
[9] = test system: HCT-15
[10] = test system: HL-60
[11] = test system: HOP-62
[12] = test system: HOP-92
[13] = test system: HT-29
[14] = test system: Hs-578T
[15] = test system: IGROV-1
[16] = test system: K562
[17] = test system: KM12
[18] = test system: M14
[19] = test system: MCF7
[20] = test system: MDA-MB-231
[21] = test system: MDA-MB-435
[22] = test system: MDA-N
[23] = test system: MOLT-4
[24] = test system: Malme-3M
[25] = test system: NCI-H226
[26] = test system: NCI-H23
[27] = test system: NCI-H460
[28] = test system: NCI-H522
[29] = test system: NCI/ADR-RES
[30] = test system: OVCAR-3
[31] = test system: OVCAR-5
[32] = test system: OVCAR-8
[33] = test system: PC-3
[34] = test system: RPMI-8226
[35] = test system: RXF 393
[36] = test system: SF-295
[37] = test system: SK-MEL-28
[38] = test system: SK-MEL-2
[39] = test system: SK-MEL-5
[40] = test system: SK-OV-3
[41] = test system: SN12C
[42] = test system: SNB-19
[43] = test system: SNB-75
[44] = test system: SR
[45] = test system: T47D
[46] = test system: U-251
[47] = test system: UACC-62
[48] = test system: UO-31
[49] = test system: 786-0
[50] = test system: A549
[51] = test system: ACHN
[52] = test system: EKVX
[53] = test system: LOX IMVI
[54] = test system: OVCAR-4
[55] = test system: SF-268
[56] = test system: SF-539
[57] = test system: SW-620
[58] = test system: TK-10
[59] = test system: UACC-257

O=C1CCCC/C1=C1/SC(=N/c2ccccc2)/C(=N\c2ccccc2)N1c1ccccc1
GI50 [1]: > 100 µM (inactive)
GI50 [2]: > 100 µM (inactive)
GI50 [3]: > 100 µM (inactive)
GI50 [4]: > 100 µM (inactive)
GI50 [5]: > 100 µM (inactive)
GI50 [6]: 56.8 µM (inactive)
GI50 [7]: > 100 µM (inactive)
GI50 [8]: > 100 µM (inactive)
GI50 [9]: > 100 µM
GI50 [10]: > 100 µM (inactive)
GI50 [11]: 36.1 µM (inactive)
GI50 [12]: > 100 µM (inactive)
GI50 [13]: > 100 µM (inactive)
GI50 [14]: 78.3 µM (inactive)
GI50 [15]: > 100 µM (inactive)
GI50 [16]: > 100 µM (inactive)
GI50 [17]: > 100 µM (inactive)
GI50 [18]: > 100 µM (inactive)
GI50 [19]: 68.7 µM (inactive)
GI50 [20]: > 100 µM (inactive)
GI50 [21]: > 10 µM (inactive)
GI50 [22]: > 100 µM (inactive)
GI50 [23]: 34.2 µM (inactive)
GI50 [24]: > 100 µM (inactive)
GI50 [25]: 23.4 µM (inactive)
GI50 [26]: > 100 µM (inactive)
GI50 [27]: > 100 µM (inactive)
GI50 [28]: > 100 µM (inactive)
GI50 [29]: > 100 µM (inactive)
GI50 [30]: 40.4 µM (inactive)
GI50 [31]: > 100 µM (inactive)
GI50 [32]: > 100 µM (inactive)
GI50 [33]: > 10 µM (inactive)
GI50 [34]: > 100 µM (inactive)
GI50 [35]: 0.0378 µM (active)
GI50 [36]: 86.3 µM (inactive)
GI50 [37]: > 100 µM (inactive)
GI50 [38]: > 100 µM (inactive)
GI50 [39]: > 10 µM (inactive)
GI50 [40]: > 100 µM (inactive)
GI50 [41]: > 100 µM (inactive)
GI50 [42]: > 100 µM (inactive)
GI50 [43]: 69.5 µM (inactive)
GI50 [44]: > 100 µM (inactive)
GI50 [45]: > 100 µM (inactive)
GI50 [46]: > 100 µM (inactive)
GI50 [47]: 38.1 µM (inactive)
GI50 [48]: 91.4 µM (inactive)

Cc1cc(O)ccc1C1(c2ccc(F)cc2)OC(=O)c2ccccc21 (configuration not stated)
GI50 [49]: 8.47 µM (inactive)
GI50 [1]: 13.6 µM (inactive)
GI50 [50]: 5.24 µM (inactive)
GI50 [51]: 4.17 µM (inactive)
GI50 [2]: 0.208 µM (active)
GI50 [3]: 3.78 µM (inactive)
GI50 [4]: 28.3 µM (inactive)
GI50 [5]: 1.82 µM (inactive)
GI50 [6]: 4.61 µM (inactive)
GI50 [52]: 3.18 µM (inactive)
GI50 [7]: 4.33 µM (inactive)
GI50 [8]: 3.21 µM (inactive)
GI50 [9]: 3.18 µM
GI50 [10]: 34 µM (inactive)
GI50 [11]: 5.65 µM (inactive)
GI50 [12]: 1.99 µM (inactive)
GI50 [13]: 5.09 µM (inactive)
GI50 [14]: 0.263 µM (active)
GI50 [15]: 2.21 µM (inactive)
GI50 [16]: 6.87 µM (inactive)
GI50 [53]: 2.31 µM (inactive)
GI50 [18]: 13.6 µM (inactive)
GI50 [19]: 1.34 µM (inactive)
GI50 [20]: 7.01 µM (inactive)
GI50 [21]: 13.8 µM (inactive)
GI50 [22]: 11.6 µM (inactive)
GI50 [23]: 15.5 µM (inactive)
GI50 [24]: 12.7 µM (inactive)
GI50 [25]: 2.38 µM (inactive)
GI50 [26]: 0.787 µM (active)
GI50 [27]: 15.6 µM (inactive)
GI50 [28]: 0.646 µM (active)
GI50 [29]: 0.415 µM (active)
GI50 [30]: 0.236 µM (active)
GI50 [54]: 0.289 µM (active)
GI50 [31]: 6.64 µM (inactive)
GI50 [32]: 0.413 µM (active)
GI50 [33]: 2.24 µM (inactive)
GI50 [34]: 21.7 µM (inactive)
GI50 [35]: 1.24 µM (inactive)
GI50 [55]: 7.73 µM (inactive)
GI50 [36]: 3.48 µM (inactive)
GI50 [56]: 2.99 µM (inactive)
GI50 [37]: 13.1 µM (inactive)
GI50 [38]: 3.93 µM (inactive)
GI50 [39]: 11.3 µM (inactive)
GI50 [40]: 3.65 µM (inactive)
GI50 [41]: 0.485 µM (active)
GI50 [42]: 4.15 µM (inactive)
GI50 [43]: 1.93 µM (inactive)
GI50 [44]: 13.4 µM (inactive)
GI50 [57]: 12.9 µM (inactive)
GI50 [45]: 0.318 µM (active)
GI50 [58]: 4.01 µM (inactive)
GI50 [46]: 15.5 µM (inactive)
GI50 [59]: 12.6 µM (inactive)
GI50 [47]: 3.39 µM (inactive)
GI50 [48]: 4 µM (inactive)

COC(=O)/C=C(/C(=O)OC)c1c(C)cc2c(C)cc(C)cc(C)c1-2
GI50 [49]: 15.2 µM (inactive)
GI50 [1]: 26.4 µM (inactive)
GI50 [50]: 14.9 µM (inactive)
GI50 [51]: 20.4 µM (inactive)
GI50 [2]: 15 µM (inactive)
GI50 [3]: 32.6 µM (inactive)
GI50 [4]: 9.18 µM (inactive)
GI50 [5]: 7.24 µM (inactive)
GI50 [6]: 22.4 µM (inactive)
GI50 [52]: 32.1 µM (inactive)
GI50 [7]: 16.4 µM (inactive)
GI50 [8]: 4.26 µM (inactive)
GI50 [9]: 4.56 µM
GI50 [10]: 4.13 µM (inactive)
GI50 [11]: 9.14 µM (inactive)
GI50 [12]: 31.6 µM (inactive)
GI50 [13]: 7.41 µM (inactive)
GI50 [14]: 11 µM (inactive)
GI50 [15]: 23.3 µM (inactive)
GI50 [16]: 4.45 µM (inactive)
GI50 [17]: 5.11 µM (inactive)
GI50 [53]: 11.7 µM (inactive)
GI50 [18]: 8.28 µM (inactive)
GI50 [19]: 4.1 µM (inactive)
GI50 [20]: 4.89 µM (inactive)
GI50 [21]: 2.77 µM (inactive)
GI50 [22]: 2.4 µM (inactive)
GI50 [23]: 5.46 µM (inactive)
GI50 [24]: 11.5 µM (inactive)
GI50 [25]: 21.1 µM (inactive)
GI50 [26]: 18.5 µM (inactive)
GI50 [27]: 19.9 µM (inactive)
GI50 [28]: 7.48 µM (inactive)
GI50 [29]: 9.33 µM (inactive)
GI50 [30]: 10.2 µM (inactive)
GI50 [54]: 22.3 µM (inactive)
GI50 [31]: 18.9 µM (inactive)
GI50 [32]: 25.4 µM (inactive)
GI50 [33]: 19 µM (inactive)
GI50 [34]: 9.79 µM (inactive)
GI50 [35]: 18.8 µM (inactive)
GI50 [55]: 19.1 µM (inactive)
GI50 [36]: 7.24 µM (inactive)
GI50 [56]: 9.12 µM (inactive)
GI50 [37]: 24.3 µM (inactive)
GI50 [38]: 20 µM (inactive)
GI50 [39]: 8.15 µM (inactive)
GI50 [40]: 21.5 µM (inactive)
GI50 [41]: 14.9 µM (inactive)
GI50 [42]: 9.89 µM (inactive)
GI50 [43]: 16.7 µM (inactive)
GI50 [44]: 4.19 µM (inactive)
GI50 [57]: 7.18 µM (inactive)
GI50 [45]: 44.1 µM (inactive)
GI50 [58]: 27.1 µM (inactive)
GI50 [46]: 8.26 µM (inactive)
GI50 [59]: 19.3 µM (inactive)
GI50 [47]: 9.77 µM (inactive)
GI50 [48]: 23 µM (inactive)

OCc1ccccc1O[C@H]1O[C@H](CO)[C@@H](O)[C@H](O)[C@H]1O
GI50 [49]: > 100 µM (inactive)
GI50 [1]: > 100 µM (inactive)
GI50 [50]: > 100 µM (inactive)
GI50 [51]: > 100 µM (inactive)
GI50 [2]: > 100 µM (inactive)
GI50 [3]: > 100 µM (inactive)
GI50 [4]: > 100 µM (inactive)
GI50 [5]: > 100 µM (inactive)
GI50 [6]: > 100 µM (inactive)
GI50 [52]: > 100 µM (inactive)
GI50 [7]: > 100 µM (inactive)
GI50 [8]: > 100 µM (inactive)
GI50 [9]: > 100 µM
GI50 [10]: > 100 µM (inactive)
GI50 [11]: > 100 µM (inactive)
GI50 [12]: > 100 µM (inactive)
GI50 [13]: > 100 µM (inactive)
GI50 [14]: > 100 µM (inactive)
GI50 [15]: > 100 µM (inactive)
GI50 [17]: > 100 µM (inactive)
GI50 [53]: > 100 µM (inactive)
GI50 [18]: > 100 µM (inactive)
GI50 [19]: > 100 µM (inactive)
GI50 [20]: > 100 µM (inactive)
GI50 [21]: > 100 µM (inactive)
GI50 [22]: > 100 µM (inactive)
GI50 [23]: > 100 µM (inactive)
GI50 [24]: > 100 µM (inactive)
GI50 [25]: > 100 µM (inactive)
GI50 [26]: > 100 µM (inactive)
GI50 [27]: > 100 µM (inactive)
GI50 [28]: > 100 µM (inactive)
GI50 [29]: > 100 µM (inactive)
GI50 [30]: > 100 µM (inactive)
GI50 [54]: > 100 µM (inactive)
GI50 [31]: > 100 µM (inactive)
GI50 [32]: > 100 µM (inactive)
GI50 [33]: > 100 µM (inactive)
GI50 [34]: > 100 µM (inactive)
GI50 [35]: > 100 µM (inactive)
GI50 [55]: > 100 µM (inactive)
GI50 [36]: > 100 µM (inactive)
GI50 [56]: > 100 µM (inactive)
GI50 [37]: > 100 µM (inactive)
GI50 [38]: > 100 µM (inactive)
GI50 [39]: > 100 µM (inactive)
GI50 [40]: > 100 µM (inactive)
GI50 [41]: > 100 µM (inactive)
GI50 [43]: > 100 µM (inactive)
GI50 [44]: > 10 µM (inactive)
GI50 [57]: > 100 µM (inactive)
GI50 [45]: > 100 µM (inactive)
GI50 [58]: > 100 µM (inactive)
GI50 [46]: > 100 µM (inactive)
GI50 [59]: > 100 µM (inactive)
GI50 [47]: > 100 µM (inactive)
GI50 [48]: > 100 µM (inactive)
